Laboratory results as given in patent US11414401B2, “Substituted 2-anilinopyrimidine derivatives as EGFR modulators” (Beta Pharma, Inc., priority 2014, dated 2022).
Read-outs that look alike come from different tables or passages of the source. Values belong to the molecule of their own block, whether it stands above or below them.

Experiments:
[1] = test system: H1975 (double mutant) cells; assay: Cell proliferation assay (Alamar Blue, 72 h), H1975; assay type: cell-based; details: Homo sapiens, read-out: H1975 IC50
Experimental: (§1) Cell Culture. […] The cell monolayer was dispersed by 5 minute exposure to 0.25% Trypsin/EDTA solution (Life Technologies) and the solution was neutralized with a fresh growth medium. […] The cells maintained normal morphology and growth characteristics during the period of the study. Cell Proliferation Assay. Dispersed cells were pooled by centrifugation (200×g, 8 min.) and resuspended in a fresh medium to a concentration of 1.00 E+04 cells/ml. 200 μL of the cell suspension was added to each well (2,000 cells/well) of a black-walled 96 well plate and the cells were allowed to attach overnight under normal culture conditions. […] The final DMSO concentration in the well was 0.5% v/v. Vehicle, non-treated, and cell-free wells were also included in the assay. The cells were cultured under normal conditions for 72 hours with daily visual inspection. Cell proliferation was measured using the dye Alamar Blue (resazurin). Resazurin is reduced by cellular enzymes to resorufin, which is fluorescent (544 nm excitation, 612 nm emission). Fluorescence intensity was proportional to cell number. A resazurin stock solution was prepared in a phosphate-buffered saline (PBS) to a stock concentration of 440 μM. The resazurin stock solution (40 μL each) was added to each well at hour 67 of the 72 hour incubation period. The plate was returned to normal culture conditions and fluorescence measurements were collected using a Cytation 3 multimode plate reader (Biotek) at 72 hours. Data Analysis. Fluorescence measurements were normalized against cell-free (background) readings and the total growth over 72 hour time period was determined versus the average of the vehicle control wells. Average and standard deviation values were determined for each condition (n=3).

A431 (wild type) cells = assay: Cell proliferation assay (Alamar Blue, 72 h), A431; assay type: cell-based; details: Homo sapiens, read-out: A431 IC50
Experimental: as §1

[2] = test system: subcutaneously-implanted HCC827 human non-small cell lung carcinoma xenographs (delE746-A750 activating mutation); assay: HCC827 mouse xenograft model, tumor growth inhibition; assay type: in vivo, female nude mice; details: 6.25 mg/kg orally once a day for 14 days (days 13-26)
Description: Antitumor Activity of Example 1 in the HCC827 Mouse Xenograft Model.

[3] = test system: subcutaneously-implanted H1975 human non-small cell lung carcinoma xenographs (L858R/T790M double mutation); details: po, 25 mg/kg, 336 h
[4] = test system: subcutaneously-implanted H1975 human non-small cell lung carcinoma xenographs (L858R/T790M double mutation); assay: H1975 mouse xenograft model, tumor growth inhibition; details: for tumor growth delay: P<0.05; for % tumor growth inhibition (% TGI): 100 mg/kg oral
[5] = NCI-H1975, H1975 (double mutant) cells, 72 h proliferation
[6] = A-431, A431 (wild type) cells, 72 h proliferation
[7] = 6.25 mg/kg orally once a day for 14 days (days 6-19)
[8] = 12.5 mg/kg orally once a day for 14 days (days 6-19)
[9] = 25 mg/kg orally once a day for 14 days (days 6-19)
[10] = all doses (6.25, 12.5 and 25 mg/kg) orally once a day for 14 days
[11] = 100 mg/kg orally once a day for 14 days (days 7-20)

Structure (SMILES): C=CC(=O)Nc1cc(Nc2nccc(-c3cn(C)c4ccccc34)n2)c(OC)cc1OCCN(C)C [Example 1, N-(2-(2-(Dimethylamino)ethoxy)-4-methoxy-5-((4-(1-methyl-1H-indol-3-yl)pyrimidin-2-yl)amino)phenyl)acrylamide]
- IC50 [1, 5]: < 100 nM
- IC50 (A431 (wild type) cells; [6]): > 1000 nM
- incidence of complete tumor regression at the completion of dosing [2]: 100%
- median time to evaluation size [2]: 61.5 days
- tolerability [2]: well tolerated
- treatment-related mortality [2]: no treatment-related mortality
- tumor growth delay ([2]; P<0.05): 33.2 days
- tumor free survivors [3]: 10%
- median time to evaluation size [4, 7]: 28.9 days
- tumor growth delay [4, 7]: 14 days
- median time to evaluation size [4, 8]: 31.6 days
- tumor growth delay [4, 8]: 16.7 days
- incidence of complete regressions [4, 9]: 100%
- median time to evaluation size [4, 9]: 34.3 days
- tumor growth delay [4, 9]: 19.3 days
- tolerability [4, 10]: well tolerated
- treatment-related mortality [4, 10]: no treatment-related mortality

Structure (SMILES): C=CC(=O)Nc1cc(Nc2nccc(-c3cn(C)c4ccccc34)n2)c(OC)cc1SCCN(C)C [Example 2, N-(2-((2-(Dimethylamino)ethyl)thio)-4-methoxy-5-((4-(1-methyl-1H-indol-3-yl)pyrimidin-2-yl)amino)phenyl)acrylamide]
- IC50 [1, 5]: < 100 nM
- IC50 (A431 (wild type) cells; [6]): > 1000 nM
- % tumor growth inhibition (% TGI) ([4]; from median tumor burdens on day 10): 110.5%
- % tumor growth inhibition (% TGI) ([4]; from median tumor burdens on day 14): 116.6%
- % tumor growth inhibition (% TGI) ([4]; from median tumor burdens on day 17): 116.6%
- incidence of complete tumor regression [4, 11]: 100%
- mice remaining tumor free (TFS) at the completion of the study [4, 11]: 12.5%
- time to evaluation size (750 mm^3) [4, 11]: 39.6 days
- tolerability [4, 11]: well tolerated
- tumor growth delay (T-C) [4, 11]: 22.2 days

Structure (SMILES): C=CC(=O)Nc1cc(Nc2nccc(-c3cn(C)c4ccccc34)n2)c(OC)cc1OC [Example 3, N-(2,4-Dimethoxy-5-((4-(1-methyl-1H-indol-yl)pyrimidin-2-yl)amino)-phenyl)acrylamide]
- IC50 [1, 5]: 100 to 1000 nM
- IC50 (A431 (wild type) cells; [6]): > 1000 nM

Structure (SMILES): C=CC(=O)Nc1cc(Nc2nccc(-c3cn(C)c4ccccc34)n2)c(OC)cc1CCCN(C)C [Example 4, N-(2-(3-(Dimethylamino)propyl)-4-methoxy-5-((4-(1-methyl-1H-indol-3-yl)pyrimidin-2-yl)amino)phenyl)acrylamide]
- IC50 [1, 5]: < 100 nM
- IC50 (A431 (wild type) cells; [6]): > 1000 nM

Structure (SMILES): C=CC(=O)Nc1cc(Nc2nccc(-c3cn(CCF)c4ccccc34)n2)c(OC)cc1OCCN(C)C [Example 11, N-(2-(2-(Dimethylamino)ethoxy)-5-((4-(1-(2-fluoroethyl)-1H-indolyl-3-yl)pyrimidin-2-yl)amino)-4-methoxyphenyl)acrylamide]
- IC50 ([1]; NCI-H1975, 72 h): < 100 nM
- IC50 (A431 (wild type) cells; A-431, 72 h): 100 to 1000 nM

Results, then the molecule that gave them:

- IC50 [1, 5]: 100 to 1000 nM
- IC50 (A431 (wild type) cells; [6]): 100 to 1000 nM
Structure (SMILES): C=CC(=O)Nc1cc(Nc2nccc(-c3c4ccccc4nn3C)n2)c(OC)cc1OCCN(C)C [Example 5, N-(2-(2-(Dimethylamino)ethoxy)-4-methoxy-5-((4-(2-methyl-2H-indazol-3-yl)pyrimidin-2-yl)amino)phenyl)acrylamide]

- IC50 [1, 5]: < 100 nM
- IC50 (A431 (wild type) cells; [6]): 100 to 1000 nM
Structure (SMILES): C=CC(=O)Nc1cc(Nc2nccc(-c3c(C)n(C)c4ccccc34)n2)c(OC)cc1OCCN(C)C [Example 8, N-(5-((4-(1,2-Dimethyl-1H-indol-3-yl)pyrimidin-2-yl)amino)-2-(2-(dimethylamino)ethoxy)-4-methoxyphenyl)acrylamide]

- IC50 [1, 5]: < 100 nM
- IC50 (A431 (wild type) cells; [6]): > 1000 nM
Structure (SMILES): C=CC(=O)Nc1cc(Nc2nccc(-c3cnn4ccccc34)n2)c(OC)cc1OCCN(C)C [Example 9, N-(2-(2-(Dimethylamino)ethoxy)-4-methoxy-5-((4-(pyrazolo[1,5-a]pyridin-3-yl)pyrimidin-2-yl)amino)phenyl)acrylamide]

- IC50 [1, 5]: < 100 nM
- IC50 (A431 (wild type) cells; [6]): 100 to 1000 nM
Structure (SMILES): C=CC(=O)Nc1cc(Nc2nccc(-c3nn(C)c4ccccc34)n2)c(OC)cc1OCCN(C)C [Example 10, N-(2-(2-(Dimethylamino)ethoxy)-4-methoxy-5-((4-(1-methyl-1H-indazol-3-yl)pyrimidin-2-yl)amino)phenyl)acrylamide]
